{"source": "PubChem BioAssay AID2743", "about": "(NMMLSC, 2010)", "key": {"[1]": {"test_system": "S. cerevisiae AGP1-GFP strain, flow cytometry GFP, 3 h", "experiment": "concentration-dependent AGP1-GFP change, TOR pathway – cell-based, flow cytometry, S. cerevisiae, MLPCN hits, dose response (AID 2743)"}, "[2]": {"experiment": "concentration-dependent AGP1-GFP change, TOR pathway – cell-based, flow cytometry, S. cerevisiae, MLPCN hits, dose response (AID 2743)", "settings": "S. cerevisiae AGP1-GFP strain, flow cytometry GFP, 3 h; at 33 µM (top of the series)"}}, "note": "Activity calls are given as the source filed them.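 Rule for the calls: active = fitted half-maximal concentration for change in GFP expression of 33 µM or less; inactive = the rest.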", "data": [{"compound": "O=C(C#Cc1cccc([N+](=O)[O-])c1)c1ccccc1", "values": [{"measurement": "EC50", "setting": "[1]", "value": 305, "unit": "nM"}]}, {"compound": "CN1CCN(C(=O)c2cc(COc3c(F)cccc3F)on2)CC1c1ccccc1", "note": "(stereo not given)", "values": [{"measurement": "EC50", "setting": "[1]", "value": 3890, "unit": "nM"}]}, {"compound": "CCOC(=O)CS(=O)(=O)c1nc(-c2ccccc2)cc(C(F)(F)F)n1", "values": [{"measurement": "EC50", "setting": "[1]", "value": 1380, "unit": "nM"}]}, {"compound": "CCN(CC)C(=O)Oc1ccnc2cc(Cl)ccc12", "values": [{"measurement": "EC50", "setting": "[1]", "value": 7220, "unit": "nM"}]}, {"compound": "Cc1ccc(S(=O)(=O)/N=C(\\Sc2ccccc2)c2ccccc2)cc1", "values": [{"measurement": "EC50", "setting": "[1]", "value": 822, "unit": "nM"}]}, {"compound": "CCCOc1ccc(C(=O)NNC(=S)NC(=O)CC)cc1", "values": [{"measurement": "EC50", "setting": "[1]", "value": 1940, "unit": "nM"}]}, {"compound": "O=C(OCC(=O)N1CCN(C(=O)c2ccco2)CC1)c1cc(-c2cccc(Br)c2)nc2ccccc12", "values": [{"measurement": "EC50", "setting": "[1]", "value": 2810, "unit": "nM"}]}, {"compound": "CS(=O)(=O)c1nc(-c2ccccc2)cc(C(F)(F)F)n1", "values": [{"measurement": "EC50", "setting": "[1]", "value": 653, "unit": "nM"}]}, {"compound": "O=C(Oc1ccnc2cc(Cl)ccc12)N1CCCCCC1", "values": [{"measurement": "EC50", "setting": "[1]", "value": 3860, "unit": "nM"}]}, {"compound": "COC(=O)CCS(=O)(=O)c1nc(-c2ccccc2)cc(C(F)(F)F)n1", "values": [{"measurement": "EC50", "setting": "[1]", "value": 943, "unit": "nM"}]}, {"compound": "CNc1nc(N)c([N+](=O)[O-])c(Nc2cccc(F)c2)n1", "values": [{"measurement": "EC50", "setting": "[1]", "value": 9390, "unit": "nM"}]}, {"compound": "CC(C)(C)C(=O)C(Cl)C(=O)Nc1ccccc1", "note": "(stereo not given)", "values": [{"measurement": "EC50", "setting": "[1]", "value": 570, "unit": "nM"}]}, {"compound": "Cc1cccc(C)c1NC(=O)C(Cl)C(=O)c1ccccc1", "note": "(stereo not given)", "values": [{"measurement": "EC50", "setting": "[1]", "value": 781, "unit": "nM"}]}, {"compound": "CS(=O)(=O)c1nc(-c2cccs2)cc(C(F)(F)F)n1", "values": [{"measurement": "EC50", "setting": "[1]", "value": 872, "unit": "nM"}]}, {"compound": "CCOC(=O)CCS(=O)(=O)c1nc(-c2ccccc2)cc(C(F)(F)F)n1", "values": [{"measurement": "EC50", "setting": "[1]", "value": 941, "unit": "nM"}]}, {"compound": "CC(=O)c1ccc(N2CCN(C(=O)c3ccc(Br)cc3)CC2)c(F)c1", "values": [{"measurement": "EC50", "setting": "[1]", "value": 6920, "unit": "nM"}]}, {"compound": "O=C(OCC(=O)N1CCN(C(=O)c2ccco2)CC1)c1cc(-c2ccccc2)nc2ccccc12", "values": [{"measurement": "GFP fluorescence (kMESF)", "setting": "[2]", "value": "43.7 kMESF (inactive)"}, {"measurement": "EC50", "setting": "[1]", "value": 2830, "unit": "nM"}]}, {"compound": "Cc1ccc(NC(=O)c2ccc(Cl)c(N3C(=O)C=CC3=O)c2)cc1", "values": [{"measurement": "GFP fluorescence (kMESF)", "setting": "[2]", "value": "27.1 kMESF (inactive)"}]}, {"compound": "[O-][n+]1cccc2c(Br)cc(Br)c(O)c21", "values": [{"measurement": "GFP fluorescence (kMESF)", "setting": "[2]", "value": "50.1 kMESF (inactive)"}]}, {"compound": "CS(=O)(=O)c1sc(C#N)c2c1C(=O)CC(c1ccccc1)C2", "note": "(stereo not given)", "values": [{"measurement": "GFP fluorescence (kMESF)", "setting": "[2]", "value": "38.9 kMESF (inactive)"}]}, {"compound": "O=S1(=O)C=C(Sc2nc3ccccc3s2)c2ccccc21", "values": [{"measurement": "GFP fluorescence (kMESF)", "setting": "[2]", "value": "34.3 kMESF (inactive)"}]}, {"compound": "O=c1c2cnn(-c3ccccc3)c2ncn1Cc1ccco1", "values": [{"measurement": "GFP fluorescence (kMESF)", "setting": "[2]", "value": "29.6 kMESF (inactive)"}]}, {"compound": "Cc1ccccc1[C@]1(C)ON(c2ccccc2C(F)(F)F)C1=O", "values": [{"measurement": "GFP fluorescence (kMESF)", "setting": "[2]", "value": "34.6 kMESF (inactive)"}]}, {"compound": "C/C(=N\\NC(=O)c1cc2ccccc2cc1O)c1ccccn1", "values": [{"measurement": "GFP fluorescence (kMESF)", "setting": "[2]", "value": "47.9 kMESF (inactive)"}]}, {"compound": "CC(C)[C@@]1(c2ccc(Cl)cc2)ON(c2ccccc2C(F)(F)F)C1=O", "values": [{"measurement": "GFP fluorescence (kMESF)", "setting": "[2]", "value": "40.5 kMESF (inactive)"}]}, {"compound": "CCCCNc1c2c3c(cccc3n(C)c1=O)C(=O)c1ccccc1-2", "values": [{"measurement": "GFP fluorescence (kMESF)", "setting": "[2]", "value": "36.3 kMESF (inactive)"}]}, {"compound": "CC(C)Cn1c(=O)c(C(=O)Nc2ccncc2)c(O)c2ccccc21", "values": [{"measurement": "GFP fluorescence (kMESF)", "setting": "[2]", "value": "16.1 kMESF (inactive)"}]}, {"compound": "N=C1S/C(=C\\c2ccco2)C(=O)N1c1nccs1", "values": [{"measurement": "GFP fluorescence (kMESF)", "setting": "[2]", "value": "40.4 kMESF (inactive)"}]}, {"compound": "CC1(C)OC(c2ccccc2)=C/C(=C/C=C2C(=O)NC(=S)NC2=O)O1", "values": [{"measurement": "GFP fluorescence (kMESF)", "setting": "[2]", "value": "36.6 kMESF (inactive)"}]}, {"compound": "O=C1C=CC(=O)N1c1ccc(Sc2ccc([N+](=O)[O-])cc2)cc1", "values": [{"measurement": "GFP fluorescence (kMESF)", "setting": "[2]", "value": "38.7 kMESF (inactive)"}]}, {"compound": "CC(=O)Oc1oc(-c2ccccc2)nc1C=Nc1ccccc1", "values": [{"measurement": "GFP fluorescence (kMESF)", "setting": "[2]", "value": "33.5 kMESF (inactive)"}]}, {"compound": "Cc1sc(/C=C2\\C(=O)ON=C2c2ccccc2)cc1Br", "values": [{"measurement": "GFP fluorescence (kMESF)", "setting": "[2]", "value": "34 kMESF (inactive)"}]}, {"compound": "COc1cc(C=C2C(=O)c3ccccc3C2=O)cc(OC)c1", "values": [{"measurement": "GFP fluorescence (kMESF)", "setting": "[2]", "value": "38 kMESF (inactive)"}]}, {"compound": "O=C1C(Cl)=C(N2CCN(Cc3ccccc3)CC2)C(=O)N1c1ccccc1", "values": [{"measurement": "GFP fluorescence (kMESF)", "setting": "[2]", "value": "43.8 kMESF (inactive)"}]}, {"compound": "CC(=O)Oc1oc(-c2ccccc2)nc1C=Nc1ccc(N(C)C)cc1", "values": [{"measurement": "GFP fluorescence (kMESF)", "setting": "[2]", "value": "43.2 kMESF (inactive)"}]}, {"compound": "CCOC(=O)CSC1=NC(=O)/C(=C\\c2ccc(Cl)cc2)S1", "values": [{"measurement": "GFP fluorescence (kMESF)", "setting": "[2]", "value": "41.8 kMESF (inactive)"}]}, {"compound": "COc1ccc(N2CCN(C(=O)c3ccc(Br)cc3)CC2)c([N+](=O)[O-])c1", "values": [{"measurement": "EC50", "setting": "[1]", "value": 3840, "unit": "nM"}]}, {"compound": "COc1ccccc1NC1=C(Cl)C(=O)N(c2ccccc2)C1=O", "values": [{"measurement": "GFP fluorescence (kMESF)", "setting": "[2]", "value": "33 kMESF (inactive)"}]}, {"compound": "O=C1N(c2ccccc2C(F)(F)F)OC1(Cc1ccccc1)c1ccccc1", "note": "(stereo not given)", "values": [{"measurement": "GFP fluorescence (kMESF)", "setting": "[2]", "value": "41.5 kMESF (inactive)"}]}]}
